Assay results reported in US5200409A, “Composition and use of substituted 1,3-dithiolo-and 1,4-dithiinoquinoxalines as an antimicrobial” (The Dow Chemical Company, priority 1992, dated 1993).
Converted amounts (≈) assume the structure as drawn. Where two headings read alike, the source gives them in different places.

Key:
Candida albicans (Ca) = assay: Minimum inhibitory concentration (MIC) in malt yeast agar; type: cell-based, Candida albicans ATCC 10231; settings: read-out: Minimum Inhibitory Concentration, Ca
Method in brief: (§1)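 Compound dispersed in malt yeast agar at final 500, 250, 100, 50, 25, 10, 5, 2.5, 1.0 and 0 ppm (from 1% acetone/water solution); plates dried 24 h, then inoculated with saline/octylphenoxy polyethoxy ethanol suspensions of 7-day cultures diluted 1:9. Incubated at 30° C; read at 48 h for yeast, 72 h for fungi.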

marine organisms = assay: Marine antifouling rating of coated test panels exposed to the marine environment; settings: scale 10 (completely free of growth) to 0 (completely covered); for Marine Antifouling Rating, 3 Week Test, Top Panel / Marine Antifouling Rating, 3 Week Test, Bottom Panel: 3 weeks; for Marine Antifouling Rating, 3 Week Test, Top Panel / Marine Antifouling Rating, 6 Week Test, Top Panel: topside, white background; for Marine Antifouling Rating, 3 Week Test, Bottom Panel / Marine Antifouling Rating, 6 Week Test, Bottom Panel: underside, black background; for Marine Antifouling Rating, 6 Week Test, Top Panel / Marine Antifouling Rating, 6 Week Test, Bottom Panel: 6 weeks
Procedure: Test panels are prepared from clear, rigid polyvinyl chloride film that is 0.381×10^-3 m thick and has one textured surface. The test panels are 0.1524 m by 0.1524 m squares that have 0.00635 m holes punched at corners on 0.127 m centers. A 0.102 square template, with a 0.067 m diameter hole at the center, is attached to the center of the textured surface of the test panels.
A candidate marine antifoulant compound (1.0 g) is stirred into a resinous latex binder (9.0 g). A portion of the compound/binder mixture (1.5 g) is added to the center of the test panel and uniformly spread over the circular area inside the template.
Water is added dropwise as needed to properly spread the compound/binder mixture. The template prevents the compound/binder mixture from spreading beyond the uncovered area. The test panel is allowed to sit for between ten to thirty minutes until the edge of the spread compound/binder mixture has dried. The template is then removed. The test panel is then allowed to dry for 8 to 12 hours at room temperature.
Two test panels are prepared for each candidate marine antifoulant compound. Two control test panels are also prepared by only treating with the resinous latex binder. One test panel of each candidate marine […] compound is attached over a white background to the topside of an exposure support apparatus. The second test panel is attached over a black background to the underside of the exposure support apparatus. The exposure support apparatus is placed horizontally 0.0254 m under a marine surface with the white background topside facing up. The exposure support apparatus is exposed to the marine environment for both 3 and 6 weeks during which time the control test panels become substantially covered with mature marine organism growth on both the topside and underside exposures.
After being removed from the exposure support apparatus, each test panel is inspected and rated for marine organism growth on both the treated and untreated areas of the test panel. The marine organisms present on the treated and untreated areas are noted. The presence of algea spores and bacterial slime are noted but not included in rating each test panel. The test panels are rated on a scale from 10 (representing completely free of marine organism growth) to 0 (representing completely covered with marine organism growth).

Fusarium oxysporum (Fo) = assay: Minimum inhibitory concentration (MIC) in malt yeast agar; type: cell-based, Fusarium oxysporum ATCC 48112; settings: read-out: Minimum Inhibitory Concentration, Fo
Method in brief: (§2)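 Agar dilution; malt yeast agar with 3 g yeast extract + 45 g malt agar/L; test levels 500–1.0 ppm plus zero. Inoculum: 7-day 30° C slant cultures suspended in saline with octylphenoxy polyethoxy ethanol, diluted 1:9, replicator-spotted. Read 72 h at 30° C.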

[1] = tested on: Salmonella choleraesuis (Sc); assay: Minimum inhibitory concentration (MIC) in nutrient agar; type: cell-based, Salmonella choleraesuis ATCC 10708; settings: Salmonella enterica
Method in brief: (§3)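 Each compound is tested by agar incorporation in nutrient agar at two pH values, 6.8 and 8.2, using final concentrations from 500 down to 1.0 ppm. Inoculum: 10^8 CFU/ml applied with a multipoint replicator; plates are read for growth after 48 h incubation at 30° C.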

Trichoderma viride (Tv) = assay: Minimum inhibitory concentration (MIC) in malt yeast agar; type: cell-based, Trichoderma viride ATCC 8678; settings: read-out: Minimum Inhibitory Concentration, Tv
Method in brief: as §2

[2] = tested on: Saccharomyces cerevisiae (Sc); assay: as above; type: cell-based, Saccharomyces cerevisiae ATCC 4105; settings: read-out: Minimum Inhibitory Concentration, Sc
Method in brief: as §1

Escherichia coli (Ec) = assay: Minimum inhibitory concentration (MIC) in nutrient agar; type: cell-based, Escherichia coli ATCC 11229
Method in brief: as §3

[3] = tested on: Pseudomonas aeruginosa (PRD-10); assay: as above; type: cell-based, Pseudomonas aeruginosa ATCC 15442
Method in brief: as §3

[4] = tested on: Penicillium chrysogenum (Pc); assay: Minimum inhibitory concentration (MIC) in malt yeast agar; type: cell-based, Penicillium chrysogenum ATCC 9480; settings: read-out: Minimum Inhibitory Concentration, Pc
Method in brief: as §2

[5] = malt yeast agar, 30° C., 72 hours for fungi
[6] = 48 h, pH 8.2, read-out: Minimum Inhibitory Concentration, Sc
[7] = 48 h, pH 8.2, read-out: Minimum Inhibitory Concentration, Ec
[8] = 48 h, pH 8.2, read-out: Minimum Inhibitory Concentration, PRD
[9] = 48 h, pH 6.8, read-out: Minimum Inhibitory Concentration, Sc
[10] = 48 h, pH 6.8, read-out: Minimum Inhibitory Concentration, Ec
[11] = 48 h, pH 6.8, read-out: Minimum Inhibitory Concentration, PRD
[12] = malt yeast agar, 30° C., 48 hours for yeast

Compound | MIC (Candida albicans (Ca); 48 h) [µg/mL] | Marine Antifouling Rating, 3 Week Test, Top Panel (marine organisms) | Marine Antifouling Rating, 3 Week Test, Bottom Panel (marine organisms) | Marine Antifouling Rating, 6 Week Test, Top Panel (marine organisms) | Marine Antifouling Rating, 6 Week Test, Bottom Panel (marine organisms) | MIC (Fusarium oxysporum (Fo); [5]) [µg/mL] | MIC [1, 6] [µg/mL] | MIC (Trichoderma viride (Tv); 72 h) [µg/mL] | MIC ([2]; 48 h) [µg/mL] | MIC (Escherichia coli (Ec); [7]) [µg/mL] | MIC [3, 8] [µg/mL] | MIC ([4]; 72 h) [µg/mL] | MIC (Fusarium oxysporum (Fo); 72 h) [µg/mL] | MIC [1, 9] [µg/mL] | MIC (Escherichia coli (Ec); [10]) [µg/mL] | MIC [3, 11] [µg/mL] | MIC (Candida albicans (Ca); [12]) [µg/mL] | MIC [4, 5] [µg/mL] | MIC [2, 12] [µg/mL] | also measured
N#CC1=C(C#N)Sc2nc3cc([N+](=O)[O-])ccc3nc2S1 [A, 7-nitro-1,4-dithiino-(2,3-b)-quinoxaline-2,3-dicarbonitrile] | 2.5 (≈ 7.98 µM) | 9 | 9 | 8 | 3 | 2.5 (≈ 7.98 µM) | > 500 | 10 (≈ 31.9 µM) | 2.5 (≈ 7.98 µM) | > 500 | > 500 |  |  |  |  |  |  |  |  | MIC ([1]; pH 6.8, nutrient agar, 30° C., 48 hours, read-out: Minimum Inhibitory Concentration, Sc): 50 µg/mL (≈ 160 µM); MIC (Escherichia coli (Ec); pH 6.8, nutrient agar, 30° C., 48 hours, read-out: Minimum Inhibitory Concentration, Ec): 25 µg/mL (≈ 79.8 µM); MIC ([3]; pH 6.8, nutrient agar, 30° C., 48 hours, read-out: Minimum Inhibitory Concentration, PRD): 250 µg/mL (≈ 798 µM)
N#CC1=C(C#N)Sc2nc3cc([N+](=O)[O-])c([N+](=O)[O-])cc3nc2S1 [B, 7,8-Dinitro-1,4-dithiino-(2,3-b)quinoxaline-2,3-dicarbonitrile] | 25 (≈ 69.8 µM) | 6 | 3 | 3 | 0 |  | > 500 | 50 (≈ 140 µM) | 25 (≈ 69.8 µM) | > 500 | > 500 | 10 (≈ 27.9 µM) | 25 (≈ 69.8 µM) | 500 (≈ 1400 µM) | 250 (≈ 698 µM) | > 500 |  |  |  | 
N#CC1=C(C#N)Sc2nc3cc(Cl)ccc3nc2S1 [C, 7-chloro-1,4-dithiino-(2,3-b)-quinoxaline-2,3-dicarbonitrile] |  | 0 | 9 | 5 | 0 | 25 (≈ 82.6 µM) | > 500 | 250 (≈ 826 µM) |  | > 500 | > 500 |  |  | > 500 | > 500 | > 500 | < 10 | < 10 | < 10 | 
Cc1ccc2nc3c(nc2c1)SC(C#N)=C(C#N)S3 [D, 7-Methyl-1,4-dithiino-(2,3-b)quinoxaline-2,3-dicarbonitrile] | 50 (≈ 177 µM) | 4 | 3 | 3 | 0 |  | > 500 | 100 (≈ 354 µM) | 25 (≈ 88.5 µM) | > 500 | > 500 | 50 (≈ 177 µM) | 50 (≈ 177 µM) | > 500 | > 500 | > 500 |  |  |  | 
N#CC1=C(C#N)Sc2nc3ccccc3nc2S1 [E, 1,4-dithiino-(2,3-b)-quinoxaline-2,3-dicarbonitrile] |  | 8 | 4 | 9 | 0 |  | > 500 | 100 (≈ 373 µM) |  | > 500 | > 500 |  | 50 (≈ 186 µM) | > 500 | > 500 | > 500 | < 10 | < 10 | < 10 | 
N#CC(C#N)=C1Sc2nc3ccc([N+](=O)[O-])cc3nc2S1 [L, 6-nitro-1,3-dithiolo-(4,5-b)-quinoxaline-2-ylidene-propanedinitrile] |  | 7 | 7 | 9 | 0 | 10 (≈ 31.9 µM) | > 500 |  |  | > 500 | > 500 | 2.5 (≈ 7.98 µM) |  | > 500 | > 500 | > 500 | 10 (≈ 31.9 µM) |  | 5 (≈ 16 µM) | 
N#CC(C#N)=C1Sc2nc3cc([N+](=O)[O-])c([N+](=O)[O-])cc3nc2S1 [M, 6,7-dinitro-1,3-dithiolo-(4,5-b)-quinoxaline-2-ylidene-propanedinitrile] | 2.5 (≈ 6.98 µM) | 9 | 9 | 5 | 1 |  | > 500 | 10 (≈ 27.9 µM) | 2.5 (≈ 6.98 µM) | > 500 | > 500 | 2.5 (≈ 6.98 µM) | 5 (≈ 14 µM) | 500 (≈ 1400 µM) | > 500 | > 500 |  |  |  | 
N#CC(C#N)=C1Sc2nc3ccc(Cl)cc3nc2S1 [O, 6-chloro-1,3-dithiolo-(4,5-b)-quinoxaline-2-ylidene-propanedinitrile] |  | 0 | 2 | 6 | 0 | > 500 | > 500 |  |  | > 500 | > 500 |  |  | > 500 | > 500 | > 500 | > 500 | 500 (≈ 1650 µM) | > 500 | MIC (Trichoderma viride (Tv); [5]): > 500 µg/mL
